The record followed here is patent US5567624A, “Carbazine dyes and derivatives for pH measurement” (Utah Medical Products, Inc., priority 1995, dated 1996).

Common to all, as to assay type: physicochemical
Series [1] can be described thus: pKa of the dyes in aqueous solution, derived from the absorbance spectra. The source says:
The pKa values, i.e. the approximate pH values of an aqueous solution of the dye where the acid and base forms of the dye are present in equal concentrations, were derived from the absorbance spectra and are listed in the Table below. As mentioned above, indicator dyes are generally most sensitive to pH changes near their pKa s.

Series [2] is described as follows: Fluorescence rating / quantum yield in aqueous solution. As to conditions: for Fluorescence: relative scale of 1 to 10 where 10 is best, excitation at maximum absorbance wavelength, constant concentration and pH. An excerpt:
The fluorescence ratings shown in the Table are based on the maximum fluorescence obtainable from an aqueous carbazine dye solution with excitation at the maximum absorbance wavelength for the particular dye, but with concentrations and pH constant between all dyes. […] Quantum yields of the acid forms of the dyes appears as high as the base forms. The carbazine dye of Example 4, sold commercially as "CARBAZINE 720" (Exciton, Inc., Dayton, Ohio), has a quantum yield of approximately 50% in aqueous solution containing base.

Series [3] is described as follows: Absorbance and fluorescence emission spectra of acid and base forms of the dyes. To be noted: Table, footnote c. As to the method: Certain properties of the carbazine dyes of Examples 1-7 were determined. Spectral data were obtained either with a Hewlett Packard Model 8452A Diode Array Spectrophotometer or a Perkin Elmer Model LS 50B Luminescence Spectrometer. All of the dyes are similar in their absorbance and emission spectra, with only slight differences in peak locations, ratios of absorbance of acid to absorbance of base, and pKa s. The unmodified dyes show large separation between absorbance peaks for acid and base forms. Typically, the acid form has a peak absorbance at about 480 nm, and the base form has a peak absorbance at about 660 nm. Fluorescence emission of the base form has a well-defined single peak at approximately 690 nm.

The structures appear in SMILES notation.

What is called pKa is the pH at which an ionisable group is half protonated. Read a high pKa as a group that holds its proton tightly. In series [1], `O=C1C=CC2=Nc3ccc(O)cc3C3(C=CC(=O)C4=C3CCCC4)C2=C1` (stereo not shown) [Example 5] yielded a pKa of 6.7. This compound also registered a Fluorescence in series [2] of 8. For the same compound, the “Absorbance ratio of acid/base” value in series [3] was determined as 0.387.

Turning to `O=C1C=CC2(C=C1)C1=CC(=O)C=CC1=Nc1ccc(O)cc12` [Example 1, 7-hydroxyspiro[acridine-9,1'-cyclohexa-2',5'-diene]-2(9H),4'-dione], the pKa in series [1] came to 6.5. Also, the Fluorescence in series [2] is reported as 2. Also, the “Absorbance ratio of acid/base” value in series [3] amounted to 0.426.

Consider `CC(C)(C)C1=CC2(C=CC1=O)C1=CC(=O)C=CC1=Nc1ccc(O)cc12` (stereo not shown) [Example 7], for which, in series [1], the pKa turned out to be 7.2. The Fluorescence in series [2] was found to be 6. Further, in series [3], the “Absorbance ratio of acid/base” value was found to be 0.324.

For `CC1=CC(=O)C=C(C(C)C)C12C1=CC(=O)C=CC1=Nc1ccc(O)cc12` (stereo not shown) [Example 6], in series [1], the pKa was 6.4. Moreover, the Fluorescence in series [2] is recorded as 7. Besides, the “Absorbance ratio of acid/base” value in series [3] is 0.377.

Compound `CC1=CC(=O)C(C)=C(C)C12C1=CC(=O)C=CC1=Nc1ccc(O)cc12` (stereo not shown) [Example 3] came in with a pKa in series [1] of 6.5. Moreover, the Fluorescence in series [2] was 10. In addition, in series [3], the “Absorbance ratio of acid/base” value stood at 0.380.

`CC1=C(C)C2(C3=CC(=O)C=CC3=Nc3ccc(O)cc32)C(C)=C(C)C1=O` [Example 4, 7-hydroxy-2',3',5',6'-tetramethylspiro[acridine-9,1'-cyclohexa-2', 5'-diene]-2(9H), 4'-dione] registered a pKa in series [1] of 6.5. The quantum yield entry in series [2] (aqueous solution containing base) is on record as “approximately 50%”. In series [2], this compound displayed a Fluorescence of 10. Moreover, the “Absorbance ratio of acid/base” value in series [3] was determined as 0.388.

Compound `CC1=CC(=O)C=C(C)C12C1=CC(=O)C=CC1=Nc1ccc(O)cc12` [Example 2] had a pKa in series [1] of 6.5. In addition, in series [2], the Fluorescence stood at 7. Moreover, the “Absorbance ratio of acid/base” value in series [3] worked out at 0.391.
